# Results as given in patent US10961278B2, “Vancomycin derivative, preparation method, pharmaceutical composition and use thereof” (SHANGHAI INSTITUTE OF MATERIA MEDICA, CHINESE ACADEMY OF …, priority 2016, dated 2021).
# Like-named read-outs stand apart in the source and are kept apart here.
# Experiments:
# [1] = tested on: vancomycin-sensitive Staphylococcus aureus Newman strain; test: In vitro antibacterial activity assay (MIC, CLSI dilution method); assay type: cell-based; details: 16 h, S. aureus Newman, 37° C.; for MIC: Staphylococcus aureus
# [2] = tested on: vancomycin-middle resistant Staphylococcus aureus Mu50 strain; test: as above; assay type: cell-based; details: 16 h; for MIC: Staphylococcus aureus, read-out: MIC Mu50
Compound,MIC ([1]; NEWMAN),"MIC ([2]; S. aureus Mu50, 37° C.)",also measured
CCCCCCCCCCNCCNC1(C)C[C@H](O[C@@H]2C(O)C(O)[C@@H](CO)O[C@H]2Oc2c3cc4cc2Oc2ccc(cc2Cl)[C@@H](O)[C@@H](NC(=O)[C@@H](CC(C)C)NC)C(=O)N[C@@H](CC(N)=O)C(=O)N[C@H]4C(=O)N[C@@H]2C(=O)N[C@H](C(=O)N[C@H](C(=O)O)c4cc(O)c(CNC5C(O)OC(CO)[C@@H](O)[C@@H]5O)c(O)c4-c4cc2ccc4O)[C@H](O)c2ccc(c(Cl)c2)O3)O[C@@H](C)[C@H]1O (some centres unmarked) [Van007],–,–,"MIC Newman [1]: 4 µg/mL; MIC Mu50 ([2]; S. aureus Mu50, 37° C.): 8 µg/mL"
CCCCCCCCCCNCCNC1(C)C[C@H](O[C@H]2C(Oc3c4cc5cc3Oc3ccc(cc3Cl)[C@@H](O)[C@@H](NC(=O)[C@@H](CC(C)C)NC)C(=O)N[C@@H](CC(N)=O)C(=O)N[C@H]5C(=O)N[C@H]3C(=O)N[C@H](C(=O)N[C@H](C(=O)O)c5cc(O)c(CNCCCNC(=O)[C@H](O)[C@@H](O)[C@H](O[C@@H]6OC(CO)[C@H](O)C(O)C6O)[C@H](O)CO)c(O)c5-c5cc3ccc5O)[C@H](O)c3ccc(c(Cl)c3)O4)O[C@H](CO)C(O)C2O)OC(C)[C@H]1O (some centres unmarked) [Van010],0.25 µg/mL,1 µg/mL,–
CN[C@H](CC(C)C)C(=O)N[C@H]1C(=O)N[C@@H](CC(N)=O)C(=O)N[C@H]2C(=O)N[C@H]3C(=O)N[C@H](C(=O)N[C@H](C(=O)O)c4cc(O)c(CNCCO[C@@H]5OC(CO)[C@H](O)C(O)C5O)c(O)c4-c4cc3ccc4O)[C@H](O)c3ccc(c(Cl)c3)Oc3cc2cc(c3OC2O[C@H](CO)C(O)C(O)[C@H]2O[C@@H]2CC(C)[C@@H](O)C(C)(NCc3ccc(-c4ccc(Cl)cc4)cc3)C2)Oc2ccc(cc2Cl)[C@H]1O (some centres unmarked) [Van011],≤ 0.0625 µg/mL,1 µg/mL,–
CN[C@H](CC(C)C)C(=O)N[C@H]1C(=O)N[C@@H](CC(N)=O)C(=O)N[C@H]2C(=O)N[C@H]3C(=O)N[C@H](C(=O)N[C@H](C(=O)O)c4cc(O)c(CNCCO[C@H]5OC(CO)[C@@H](O)C(O)C5O)c(O)c4-c4cc3ccc4O)[C@H](O)c3ccc(c(Cl)c3)Oc3cc2cc(c3OC2O[C@H](CO)C(O)C(O)[C@H]2O[C@@H]2CC(C)[C@@H](O)C(C)(NCc3ccc(-c4ccc(Cl)cc4)cc3)C2)Oc2ccc(cc2Cl)[C@H]1O (some centres unmarked) [Van013],–,–,MIC [1]: 2 µg/mL; MIC [2]: 4 µg/mL
CN[C@H](CC(C)C)C(=O)N[C@H]1C(=O)N[C@@H](CC(N)=O)C(=O)N[C@H]2C(=O)N[C@H]3C(=O)N[C@H](C(=O)N[C@H](C(=O)O)c4cc(O)c(CNCCCNC(=O)[C@H](O)[C@@H](O)[C@H](O)[C@H](O)CO)c(O)c4-c4cc3ccc4O)[C@H](O)c3ccc(c(Cl)c3)Oc3cc2cc(c3OC2O[C@H](CO)C(O)C(O)[C@H]2O[C@@H]2CC(C)[C@@H](O)C(C)(NCc3ccc(-c4ccc(Cl)cc4)cc3)C2)Oc2ccc(cc2Cl)[C@H]1O (some centres unmarked) [Van014],–,–,MIC [1]: 0.25 µg/mL; MIC [2]: 0.125 µg/mL
CN[C@H](CC(C)C)C(=O)N[C@H]1C(=O)N[C@@H](CC(N)=O)C(=O)N[C@H]2C(=O)N[C@@H]3C(=O)N[C@H](C(=O)N[C@H](C(=O)O)c4cc(O)c(CNCCCNC(=O)[C@H](O)[C@@H](O)[C@H](O[C@@H]5OC(CO)[C@H](O)C(O)[C@@H]5O)[C@H](O)CO)c(O)c4-c4cc3ccc4O)[C@H](O)c3ccc(c(Cl)c3)Oc3cc2cc(c3OC2O[C@H](CO)C(O)C(O)[C@H]2O[C@H]2CC(C)(NCc3ccc(-c4ccc(Cl)cc4)cc3)[C@H](O)C(C)O2)Oc2ccc(cc2Cl)[C@H]1O (some centres unmarked) [Van015],–,–,MIC [1]: 0.25 µg/mL; MIC [2]: 0.5 µg/mL
CN[C@H](CC(C)C)C(=O)N[C@H]1C(=O)N[C@@H](CC(N)=O)C(=O)N[C@H]2C(=O)N[C@H]3C(=O)N[C@H](C(=O)N[C@H](C(=O)O)c4cc(O)c(CNCCCNC(=O)[C@H](O)[C@@H](O)[C@H](O)[C@H](O)CO)c(O)c4-c4cc3ccc4O)[C@H](O)c3ccc(c(Cl)c3)Oc3cc2cc(c3OC2O[C@H](CO)C(O)C(O)[C@H]2O[C@@H]2CC(C)[C@@H](O)C(C)(NCc3ccc(OCc4cccc(-c5ccccc5)c4C)c(Cl)c3)C2)Oc2ccc(cc2Cl)[C@H]1O (some centres unmarked) [Van017],0.5 µg/mL,1 µg/mL,–
CCCCCCCCCNC1(C)C[C@H](O[C@H]2C(Oc3c4cc5cc3Oc3ccc(cc3Cl)[C@@H](O)[C@@H](NC(=O)[C@@H](CC(C)C)NC)C(=O)N[C@@H](CC(N)=O)C(=O)N[C@H]5C(=O)N[C@H]3C(=O)N[C@H](C(=O)N[C@H](C(=O)O)c5cc(O)c(CNCCCNC(=O)[C@H](O)[C@@H](O)[C@H](O)[C@H](O)CO)c(O)c5-c5cc3ccc5O)[C@H](O)c3ccc(c(Cl)c3)O4)O[C@H](CO)C(O)C2O)CC(C)[C@H]1O (some centres unmarked) [Van019],0.5 µg/mL,2 µg/mL,–
CN[C@H](CC(C)C)C(=O)N[C@H]1C(=O)N[C@@H](CC(N)=O)C(=O)N[C@H]2C(=O)N[C@@H]3C(=O)N[C@H](C(=O)NC(C(=O)NCCCN(C)C)c4cc(O)cc(O)c4-c4cc3ccc4O)[C@H](O)c3ccc(c(Cl)c3)Oc3cc2cc(c3OC2O[C@H](CO)C(O)C(O)[C@H]2O[C@H]2CC(C)(NCc3ccc(-c4ccc(Cl)cc4)cc3)[C@H](O)C(C)O2)Oc2ccc(cc2Cl)[C@H]1O (some centres unmarked) [Van020],–,–,MIC [1]: 1 µg/mL; MIC [2]: 1 µg/mL

# Further lines, with some results ahead:
MIC ([1]; NEWMAN),"MIC ([2]; S. aureus Mu50, 37° C.)",Compound,also measured
1 µg/mL,2 µg/mL,CCCCCCCCCCNCCNC1(C)C[C@H](O[C@H]2C(Oc3c4cc5cc3Oc3ccc(cc3Cl)[C@@H](O)[C@@H](NC(=O)[C@@H](CC(C)C)NC)C(=O)N[C@@H](CC(N)=O)C(=O)N[C@H]5C(=O)N[C@H]3C(=O)N[C@H](C(=O)N[C@H](C(=O)O)c5cc(O)c(CNCCOC6OC(CO)[C@@H](O)C(O)C6O)c(O)c5-c5cc3ccc5O)[C@H](O)c3ccc(c(Cl)c3)O4)O[C@H](CO)C(O)C2O)OC(C)[C@H]1O (some centres unmarked) [Van001],–
0.5 µg/mL,2 µg/mL,CCCCCCCCCCNCCNC1(C)C[C@H](O[C@H]2C(Oc3c4cc5cc3Oc3ccc(cc3Cl)[C@@H](O)[C@@H](NC(=O)[C@@H](CC(C)C)NC)C(=O)N[C@@H](CC(N)=O)C(=O)N[C@H]5C(=O)N[C@H]3C(=O)N[C@H](C(=O)N[C@H](C(=O)O)c5cc(O)c(CNCCO[C@@H]6OC(CO)[C@H](O)C(O)C6O)c(O)c5-c5cc3ccc5O)[C@H](O)c3ccc(c(Cl)c3)O4)O[C@H](CO)C(O)C2O)OC(C)[C@H]1O (some centres unmarked) [Van002],–
4 µg/mL,16 µg/mL,CCCCCCCCCCNCCNC1(C)C[C@H](O[C@H]2C(Oc3c4cc5cc3Oc3ccc(cc3Cl)[C@@H](O)[C@@H](NC(=O)[C@@H](CC(C)C)NC)C(=O)N[C@@H](CC(N)=O)C(=O)N[C@H]5C(=O)N[C@H]3C(=O)N[C@H](C(=O)N[C@H](C(=O)O)c5cc(O)c(CNCCO[C@@H]6OC(CO)[C@@H](O)C(O)C6NC(C)=O)c(O)c5-c5cc3ccc5O)[C@H](O)c3ccc(c(Cl)c3)O4)O[C@H](CO)C(O)C2O)OC(C)[C@H]1O (some centres unmarked) [Van003],–
1 µg/mL,4 µg/mL,CCCCCCCCCCNCCNC1(C)C[C@H](O[C@H]2C(Oc3c4cc5cc3Oc3ccc(cc3Cl)[C@@H](O)[C@@H](NC(=O)[C@@H](CC(C)C)NC)C(=O)N[C@@H](CC(N)=O)C(=O)N[C@H]5C(=O)N[C@H]3C(=O)N[C@H](C(=O)N[C@H](C(=O)O)c5cc(O)c(CNCCO[C@@H]6OC(CO)[C@@H](O)C(O)C6O)c(O)c5-c5cc3ccc5O)[C@H](O)c3ccc(c(Cl)c3)O4)O[C@H](CO)C(O)C2O)OC(C)[C@H]1O (some centres unmarked) [Van004],–
1 µg/mL,4 µg/mL,CCCCCCCCCCNCCNC1(C)C[C@H](O[C@@H]2C(O)C(O)[C@@H](CO)O[C@H]2Oc2c3cc4cc2Oc2ccc(cc2Cl)[C@@H](O)[C@@H](NC(=O)[C@@H](CC(C)C)NC)C(=O)N[C@@H](CC(N)=O)C(=O)N[C@H]4C(=O)N[C@@H]2C(=O)N[C@H](C(=O)N[C@H](C(=O)O)c4cc(O)c(CNCCO)c(O)c4-c4cc2ccc4O)[C@H](O)c2ccc(c(Cl)c2)O3)O[C@@H](C)[C@H]1O (some centres unmarked) [Van005],–
8 µg/mL,–,CCCCCCCCCCNCCNC1(C)C[C@H](O[C@@H]2C(O)C(O)[C@@H](CO)O[C@H]2Oc2c3cc4cc2Oc2ccc(cc2Cl)[C@@H](O)[C@@H](NC(=O)[C@@H](CC(C)C)NC)C(=O)N[C@@H](CC(N)=O)C(=O)N[C@H]4C(=O)N[C@@H]2C(=O)N[C@H](C(=O)N[C@H](C(=O)O)c4cc(O)c(CNC5C(O)OC(CO)[C@@H](O)[C@@H]5O)c(O)c4-c4cc2ccc4O)[C@H](O)c2ccc(c(Cl)c2)O3)O[C@@H](C)[C@H]1O (some centres unmarked) [Van006],"MIC Mu50 ([2]; S. aureus Mu50, 37° C.): 32 µg/mL"
≤ 0.0625 µg/mL,0.25 µg/mL,CCCCCCCCCCNCCNC1(C)C[C@H](O[C@@H]2C(O)C(O)[C@@H](CO)O[C@H]2Oc2c3cc4cc2Oc2ccc(cc2Cl)[C@@H](O)[C@@H](NC(=O)[C@@H](CC(C)C)NC)C(=O)N[C@@H](CC(N)=O)C(=O)N[C@H]4C(=O)N[C@@H]2C(=O)N[C@H](C(=O)N[C@H](C(=O)O)c4cc(O)c(CNC5C(O)OC(CO)[C@H](O)[C@@H]5O)c(O)c4-c4cc2ccc4O)[C@H](O)c2ccc(c(Cl)c2)O3)O[C@@H](C)[C@H]1O (some centres unmarked) [Van008],–
0.5 µg/mL,1 µg/mL,CCCCCCCCCCNCCNC1(C)C[C@H](O[C@H]2C(Oc3c4cc5cc3Oc3ccc(cc3Cl)[C@@H](O)[C@@H](NC(=O)[C@@H](CC(C)C)NC)C(=O)N[C@@H](CC(N)=O)C(=O)N[C@H]5C(=O)N[C@H]3C(=O)N[C@H](C(=O)N[C@H](C(=O)O)c5cc(O)c(CNCCCNC(=O)[C@H](O)[C@@H](O)[C@H](O)[C@H](O)CO)c(O)c5-c5cc3ccc5O)[C@H](O)c3ccc(c(Cl)c3)O4)O[C@H](CO)C(O)C2O)OC(C)[C@H]1O (some centres unmarked) [Van009],–
4 µg/mL,8 µg/mL,CCc1ccc(CNC2(C)C[C@H](O[C@H]3C(Oc4c5cc6cc4Oc4ccc(cc4Cl)[C@@H](O)[C@@H](NC(=O)[C@@H](CC(C)C)NC)C(=O)N[C@@H](CC(N)=O)C(=O)N[C@H]6C(=O)N[C@H]4C(=O)N[C@H](C(=O)N[C@H](C(=O)O)c6cc(O)c(CNCCCNC(=O)[C@H](O)[C@@H](O)[C@H](O)[C@H](O)CO)c(O)c6-c6cc4ccc6O)[C@H](O)c4ccc(c(Cl)c4)O5)O[C@H](CO)C(O)C3O)CC(C)[C@H]2O)cc1 (some centres unmarked) [Van018],–
2 µg/mL,4 µg/mL,CN[C@H](CC(C)C)C(=O)N[C@H]1C(=O)N[C@@H](CC(N)=O)C(=O)N[C@H]2C(=O)N[C@H]3C(=O)N[C@H](C(=O)N[C@H](C(=O)NCCCN(C)C)c4cc(O)c(CNCCOC5OC(CO)[C@@H](O)C(O)C5O)c(O)c4-c4cc3ccc4O)[C@H](O)c3ccc(c(Cl)c3)Oc3cc2cc(c3OC2O[C@H](CO)C(O)C(O)[C@H]2O[C@H]2CC(C)(NCc3ccc(-c4ccc(Cl)cc4)cc3)[C@H](O)C(C)O2)Oc2ccc(cc2Cl)[C@H]1O (some centres unmarked) [Van021],–
